{"source": "patent US20260108554A1", "about": "“METHODS FOR REPROGRAMMING AND GENE EDITING CELLS” (Factor Bioscience Inc., priority 2022, published 2026)", "assay_type_in_all_cases": "cell-based, human", "key": {"[1]": {"test_system": "AAVS1", "assay": "300 base insertion in fibroblasts (SfoI cut band)", "experimental": "In the gel, Lane 1: 100 base ladder; Lane 2: Ultraslice and SfoI 300 base insertion dsDNA repair template (Untreated); and Lane 3: Ultraslice and SfoI 300 base insertion dsDNA repair template (NU7441 9 uM 72 h treated)."}, "[2]": {"test_system": "AAVS1 safe-harbor locus", "assay": "SfoI assay (RFLP) of single-base editing in fibroblasts", "details": "for increase in single-base editing / base change efficiency compared to untreated: application after transfection (25 μM 48 h post electroporation)", "experimental": "The following general protocol was used for an Sfol assay to quantify insertion of repair template.\n(§1) • 1. Fibroblasts were cultured using DMEM+10% FBS media in 37° Celsius with 5% O2 and 5% CO2 • 2. iPSC was cultured using mTeSR+Y27632 in 37° Celsius with 5% O2 and 5% CO2\n(§2) • 3. After detaching cells with TrypleE and DTI, standard electroporation protocol was performed • 4. 0.8 ug˜1 ug of AAVS1 Ultraslice RNA and 600 ng of SfoI ssDNA repair template was delivered by electroporation. Ultraslice is a temperature sensitive gene-editing protein. The SfoI base change ssDNA repair template was a single stranded DNA piece with homology arms that is used as template for targeted DNA repair • 5. Fibroblasts were electroporated with 700 V, 20 ms, 1 pulse • 6. iPSCs were electroporated with 1100 V, 20 ms, 2 pulse)\n• 7. Cells were detached 48 h˜72 h post electroporation and centrifuged to obtain cell pellets • 8. Perform genomic DNA extraction was performed using ZYMO Research Quick DNA Miniprep Kit (Catalog #: D3024)\n• 9. AAVS1 surveyor PCR was performed using KAPA Hifi Hotstart PCR kit\n• 10. 250 ng˜400 ng of AAVS1 PCR amplicon was obtained • 11. Amplicon was mixed with 2 μl of 10× Tango Buffer and 1 μl of EheI enzyme • 12. The mixture was incubated for 1 h in 37° C., followed by 20 mins at 65° C.\n• 13. After diluting SfoI assay product with 40 ul of H2O, 20 ul of product was loaded to 2% Egel • 14. After running 2% Egel for 10 minutes, the gel was visualized and SfoI band intensity was quantified using Chemidoc and ImageJ software\nFollowing treatment with resveratrol, fibroblasts was co-transfected with mRNA encoding a chromatin context-sensitive gene-editing protein targeting the AAVS1 safe-harbor locus and a single-stranded DNA repair template designed to introduce a SfoI restriction-enzyme site through a G-to-C mutation. Single-base editing efficiency was determined by restriction fragment length polymorphism (RFLP) analysis. […] In the gel, Lane 1: 100 base ladder; Lane 2: Ultraslice and SfoI base change ssDNA repair template (Resveratrol 25 μM 48 h pretreatment); Lane 3: Ultraslice and SfoI base change ssDNA repair template (Untreated); and Lane 4: Ultraslice and SfoI base change ssDNA repair template (Resveratrol 25 μM treatment 48 post electroporation)."}, "[3]": {"test_system": "fibroblasts", "assay": "cell cycle S/G2 population after Resveratrol treatment"}, "[4]": {"test_system": "AAVS1", "assay": "1 kb insertion in iPSCs (AAVS1 sPCR amplicon gel)", "details": "iPSC", "experimental": "as §1, §2\nIn this experiment, the gel image is AAVS1 sPCR amplicon and not Sfol assay product. In the gel, Lane 1: 1000 base ladder; Lane 2: Ultraslice (Clean cap) and SfoI 1 kb insertion ssDNA repair template with 90b homology arm (Reverse transcription); and Lane 3: Ultraslice (Clean cap) and SfoI 1 kb insertion ssDNA repair template with 90b homology arm (Reverse transcription)—Resveratrol 25 uM 24 h incubation.\nIn this experiment, the gel image is AAVS1 sPCR amplicon and not Sfol assay product. […]"}, "[5]": {"test_system": "iMSCs", "assay": "electroporation of GFP repair template at AAVS1 with or without TTAGGG motif", "details": "gene-editing at AAVS1 with GFP repair template", "experimental": "FIG. 54 is a graphical illustration of the mechanism of action that the inclusion of the TTAGGG motif has on cells during electroporation. Cells were electroporated with and without the addition of a gene editing protein, UltraSlice. All electroporation's were performed using the Invitrogen NEON.\nIn this example, the TTAGGG motif was incorporated onto the 5′ end of a double stranded repair template or co-electroporated as a short oligo fragment in primary fibroblasts, iMSC, or iPSC.\nThe sequence of the TTAGGG motif used in this example was: […] (SEQ ID NO: 15). This motif was incorporated at the 5′ and 3′ end of dsODN via PCR amplification using the primer pair A151-AAVS1, Forward primer: […] (SEQ ID NO: 86) and A151-AAVS1, Reverse primer: […] (SEQ ID NO: 87). Control primers without the motif had the following sequences: AAVS1, Forward primer: […] (SEQ ID NO: 88) and AAVS1, Reverse primer: […] (SEQ ID NO: 89). The full sequence of the repair template that human primary fibroblasts, iMSCs and iPSCs was: AAVS1-h90-pJeT-GFP-SpA-h90. This repair template included a dsODN encoding a GFP reporter and containing an SfoI restriction site targeting the AAVS1 site with 90 base pairs of homology. The A151 sequence was added to the end of a double stranded repair template using PCR amplification. Repair templates were then purified using the Qiagen QIAquick PCR Purification kit prior to electroporation. […]"}}, "note": "Where “and” joins values, the source holds several entries; their conditions need not be identical. Equal values may be shown once."}
{"compound": "O=c1cc(N2CCOCC2)oc2c(-c3cccc4c3sc3ccccc34)cccc12", "note": "[NU7441]", "values": [{"measurement": "gene-editing efficiency (gel)", "setting": "[1]", "value": "increased gene-editing efficiency"}, {"measurement": "increase in 300b insertion SfoI cut band intensity compared to untreated", "setting": "[1]; fibroblasts, 9 uM 72 h incubation", "value": 7, "unit": "fold"}]}
{"compound": "Oc1ccc(C=Cc2cc(O)cc(O)c2)cc1", "note": "[Resveratrol]", "values": [{"measurement": "increase in single-base editing / base change efficiency compared to untreated", "setting": "[2]", "value": "approximately 2.3 fold"}, {"measurement": "increase in single-base editing / base change efficiency compared to untreated", "setting": "[2]; listed as resveratrol", "value": "> 2", "unit": "fold"}, {"measurement": "increase in HDR / base change efficiency compared to untreated", "setting": "[2]; fibroblasts, 25 μM 48 h pretreatment prior to transfection", "value": "2.2 fold and 2 fold"}, {"measurement": "gene-editing efficiency (gel)", "setting": "[2]; pretreated fibroblasts", "value": "increased gene-editing efficiency"}, {"measurement": "increase in S/G2 population", "setting": "[3]; 25 uM for 48 h followed by 8 h incubation in DMEM/10% FBS", "value": "approximately 40%"}, {"measurement": "increase of the S and G2-phase population", "setting": "[3]; treatment prior to transfection, compared to untreated cells", "value": 2.3, "unit": "fold"}, {"measurement": "1 kb insertion rate", "setting": "[4]; 25 uM for 24 h post electroporation, ssDNA repair template (Reverse transcription)", "value": 8.7, "unit": "%"}, {"measurement": "increase of 1 kb insertion", "setting": "[4]; treatment after electroporation", "value": 1.6, "unit": "fold"}]}
{"compound": "TTAGGGTTAGGGTTAGGGTTAGGG [A151 ODN]", "values": [{"measurement": "higher viability than when the motif was not present", "setting": "[5]", "value": "approximately 50%"}, {"measurement": "more GFP-positive cells than when the motif was not present", "setting": "[5]", "value": "approximately 50%"}]}
